In paper PMC3216989, “Bluetongue Virus VP1 Polymerase Activity In Vitro: Template Dependency, Dinucleotide Priming and Cap Dependency” (PLoS ONE, 2011):

Target: T1, BTV VP1 (his-tagged VP1) (Bluetongue virus (serotype 10 / American isolate), UniProt P13840)
T1 construct: gene Segment-1; tag cleavage not mentioned
Assay: in vitro polymerase assay, [α-32P]CTP incorporation into dsRNA, native PAGE
Type: biochemical
Conditions: 20 pmol in 50 µl, uncapped T7 S9 ssRNA template, Mg2+, Mn2+, pH 7.4, 37 °C, 5 h

T1 sequence (P13840 whole entry): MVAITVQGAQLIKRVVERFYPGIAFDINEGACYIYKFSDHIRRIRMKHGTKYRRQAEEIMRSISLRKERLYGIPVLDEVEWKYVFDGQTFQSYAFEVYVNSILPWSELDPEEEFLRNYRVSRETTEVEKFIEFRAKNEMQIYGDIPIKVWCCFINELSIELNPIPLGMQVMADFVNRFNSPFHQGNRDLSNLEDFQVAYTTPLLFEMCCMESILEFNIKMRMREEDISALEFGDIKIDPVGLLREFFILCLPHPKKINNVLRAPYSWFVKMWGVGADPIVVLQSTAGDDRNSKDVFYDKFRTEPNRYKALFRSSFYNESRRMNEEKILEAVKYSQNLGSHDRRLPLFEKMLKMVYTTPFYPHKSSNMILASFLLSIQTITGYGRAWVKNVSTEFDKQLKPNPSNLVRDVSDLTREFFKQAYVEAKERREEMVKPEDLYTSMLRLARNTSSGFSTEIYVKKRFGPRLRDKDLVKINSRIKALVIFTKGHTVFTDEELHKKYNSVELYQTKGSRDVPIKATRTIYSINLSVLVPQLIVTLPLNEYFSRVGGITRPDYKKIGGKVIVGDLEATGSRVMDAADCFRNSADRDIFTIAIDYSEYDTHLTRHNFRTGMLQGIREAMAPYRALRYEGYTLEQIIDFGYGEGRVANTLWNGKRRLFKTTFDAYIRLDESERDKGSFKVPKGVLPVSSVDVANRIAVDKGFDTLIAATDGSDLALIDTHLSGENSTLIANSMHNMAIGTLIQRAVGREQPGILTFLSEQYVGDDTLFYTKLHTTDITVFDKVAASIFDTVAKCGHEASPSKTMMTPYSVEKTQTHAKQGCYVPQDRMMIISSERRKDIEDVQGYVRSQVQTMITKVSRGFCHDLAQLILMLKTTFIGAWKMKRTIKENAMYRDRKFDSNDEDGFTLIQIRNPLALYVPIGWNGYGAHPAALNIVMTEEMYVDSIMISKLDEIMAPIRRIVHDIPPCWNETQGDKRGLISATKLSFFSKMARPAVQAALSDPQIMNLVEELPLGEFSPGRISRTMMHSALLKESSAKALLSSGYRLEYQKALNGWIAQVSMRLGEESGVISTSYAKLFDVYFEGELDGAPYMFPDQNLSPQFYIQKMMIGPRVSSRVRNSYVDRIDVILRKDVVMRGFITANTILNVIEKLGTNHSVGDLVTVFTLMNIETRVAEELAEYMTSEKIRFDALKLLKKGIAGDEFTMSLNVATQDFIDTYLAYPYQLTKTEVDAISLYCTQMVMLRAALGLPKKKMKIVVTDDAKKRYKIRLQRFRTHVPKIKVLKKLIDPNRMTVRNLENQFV

SMILES | fold of control (activator, allosteric proposed) | further results
Nc1nc2c(ncn2[C@@H]2O[C@H](COP(=O)(O)OP(=O)(O)OP(=O)(O)OC[C@H]3O[C@@H](n4cnc5c(=O)[nH]c(N)nc54)[C@H](O)[C@@H]3O)[C@@H](O)[C@H]2O)c(=O)[nH]1 [GpppG] | enhanced by the addition of all cap analogues, with GpppG showing the greatest enhancement | 
Nc1nc2c(ncn2[C@@H]2O[C@H](COP(=O)(O)O[C@H]3[C@@H](O)[C@H](n4cnc5c(N)ncnc54)O[C@@H]3CO)[C@@H](O)[C@H]2O)c(=O)[nH]1 [ApG] |  | fold of control (priming dinucleotide): GpG and ApG, which complement only the last nucleotide
CO[C@H]1[C@@H](O)[C@H](n2c[n+](C)c3c(=O)[nH]c(N)nc32)O[C@@H]1COP(=O)(O)OP(=O)(O)OP(=O)(O)OC[C@H]1O[C@@H](n2cnc3c(=O)[nH]c(N)nc32)[C@H](O)[C@@H]1O [ARCA, 3′-O-methyl-m7GpppG] | dsRNA synthesis from both capped and uncapped T7 S9 ssRNA was enhanced | 
Nc1nc2c(ncn2[C@@H]2O[C@H](COP(=O)(O)O[C@H]3[C@@H](O)[C@H](n4cnc5c(=O)[nH]c(N)nc54)O[C@@H]3CO)[C@@H](O)[C@H]2O)c(=O)[nH]1 [GpG] |  | fold of control (priming dinucleotide, additional allosteric effect proposed): GpG and ApG, which complement only the last nucleotide
C[n+]1cn([C@@H]2O[C@H](COP(=O)(O)OP(=O)(O)OP(=O)(O)OC[C@H]3O[C@@H](n4cnc5c(=O)[nH]c(N)nc54)[C@H](O)[C@@H]3O)[C@@H](O)[C@H]2O)c2nc(N)[nH]c(=O)c21 [m7GpppG] | dsRNA synthesis from both capped and uncapped T7 S9 ssRNA was enhanced | 
Nc1nc2c(ncn2[C@@H]2O[C@H](COP(=O)(O)OP(=O)(O)OP(=O)(O)OC[C@H]3O[C@@H](n4cnc5c(N)ncnc54)[C@H](O)[C@@H]3O)[C@@H](O)[C@H]2O)c(=O)[nH]1 [GpppA] | dsRNA synthesis from both capped and uncapped T7 S9 ssRNA was enhanced | 
